Results published in article PMC9412104, “Biochemical and Structural Insights on the Poplar Tau Glutathione Transferase GSTU19 and 20 Paralogs Binding Flavonoids” (Frontiers in Molecular Biosciences, 2022).
Read-outs that look alike come from different tables or passages of the source. Values belong to the compound of their own block, whether it stands above or below them.

What was measured:
[1] = target: T1, PtGSTU20C160Y (Populus trichocarpa, UniProt D2X9R3, C160Y); assay: GSH-conjugation activity toward model substrates, variant; format: biochemical; conditions: PtGSTU19 C160Y in Table S4, fixed saturating GSH, mean ± S.D.; for k cat: n = 3; for Km: n = 3, read-out: apparent KM
T1 sequence (D2X9R3 2-219 C160Y): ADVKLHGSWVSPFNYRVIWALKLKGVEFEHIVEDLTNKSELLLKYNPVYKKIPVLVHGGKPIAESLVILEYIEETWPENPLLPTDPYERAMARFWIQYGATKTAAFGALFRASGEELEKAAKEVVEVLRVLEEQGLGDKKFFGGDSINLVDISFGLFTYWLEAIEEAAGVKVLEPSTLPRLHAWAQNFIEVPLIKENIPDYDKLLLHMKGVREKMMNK
Protocol: (§2) Peroxidase activity toward hydroperoxides was measured using an NADPH coupled spectrophotometric assay ([Pégeot et al., 2014]).
(§3) The measured velocities were corrected by subtracting the rate of the spontaneous nonenzymatic reaction, and three independent experiments were performed at each substrate concentration.

[2] = target: T2, PtGSTU19Y160F (Populus trichocarpa, UniProt B9HKX9, Y160F); assay: as above; format: biochemical; conditions: for k cat / Km: PtGSTU19 Y160F, GSH-conjugation, fixed saturating GSH, mean ± S.D., n = 3; for Km: read-out: apparent KM
T2 sequence (B9HKX9 2-219 Y160F): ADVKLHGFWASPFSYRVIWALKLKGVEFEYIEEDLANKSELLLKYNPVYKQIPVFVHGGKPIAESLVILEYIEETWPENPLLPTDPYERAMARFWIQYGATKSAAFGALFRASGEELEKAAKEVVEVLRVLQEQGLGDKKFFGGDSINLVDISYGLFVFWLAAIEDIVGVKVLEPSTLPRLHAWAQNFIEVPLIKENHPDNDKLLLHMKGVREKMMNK
Protocol: as §2, §3

[3] = target: T3, PtGSTU19 (Populus trichocarpa, UniProt B9HKX9); assay: GSH-conjugation activity toward model substrates; conditions: for Catalytic efficiency: PtGSTU19
T3 sequence (B9HKX9 entry or part of it): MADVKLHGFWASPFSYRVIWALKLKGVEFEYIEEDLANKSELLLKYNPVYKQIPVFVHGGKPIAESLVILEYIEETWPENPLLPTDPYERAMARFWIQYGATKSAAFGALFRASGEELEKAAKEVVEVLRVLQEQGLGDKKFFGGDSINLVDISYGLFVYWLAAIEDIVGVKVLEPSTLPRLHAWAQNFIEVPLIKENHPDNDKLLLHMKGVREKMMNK

[4] = target: T4, PtGSTU20 (Populus trichocarpa, UniProt D2X9R3); assay: GSH-conjugation activity toward model substrates
T4 sequence (D2X9R3 entry or part of it): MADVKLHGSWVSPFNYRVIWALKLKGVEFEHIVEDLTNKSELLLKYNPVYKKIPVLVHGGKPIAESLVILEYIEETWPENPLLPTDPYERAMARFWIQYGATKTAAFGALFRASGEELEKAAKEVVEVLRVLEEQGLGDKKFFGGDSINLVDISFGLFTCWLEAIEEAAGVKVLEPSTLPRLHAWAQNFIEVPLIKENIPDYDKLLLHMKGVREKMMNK

[5] = target: T5, PtGSTU19Y160C (Populus trichocarpa, UniProt B9HKX9, Y160C); assay: GSH-conjugation activity toward model substrates, variant; format: biochemical; conditions: PtGSTU19 Y160C, fixed saturating GSH, mean ± S.D.; for k cat: n = 3; for Km: n = 3, read-out: apparent KM
T5 sequence (B9HKX9 2-219 Y160C): as the sequence (B9HKX9 2-219 Y160F) above, with F159C counted along it
Protocol: as §2, §3

[6] = target: T6, PtGSTU19Y160A (Populus trichocarpa, UniProt B9HKX9, Y160A); assay: as above; format: biochemical; conditions: PtGSTU19 Y160A, fixed saturating GSH, mean ± S.D.; for k cat: n = 3; for Km: n = 3, read-out: apparent KM
T6 sequence (B9HKX9 2-219 Y160A): as the sequence (B9HKX9 2-219 Y160F) above, with F159A counted along it
Protocol: as §2, §3

[7] = target: T3, PtGSTU19; assay: Competition (inhibition) assay of GSH-conjugation with PITC as substrate; format: biochemical
Protocol: (§4) The measured velocities were corrected by subtracting the rate of the spontaneous nonenzymatic reaction, and three independent experiments were performed at each substrate concentration. The kinetic parameters (k cat and apparent K m) and the inhibition constants (K i) were, respectively, obtained by fitting the data to the nonlinear regression Michaelis–Menten model (kinetic assays) and to the mixed inhibition model (inhibition assays) in GraphPad Prism 8 software ([Copeland, 2013]).

[8] = target: T4, PtGSTU20; assay: as above; format: biochemical
Protocol: as §4

[9] = target: T3, PtGSTU19; assay: Thermal shift assay (SYPRO orange); format: binding
Protocol: (§1) Assays were performed in a mixture (final volume of 25 µL) containing 30 mM Tris-HCl pH 8.0, 100 µM of chemical compounds (diluted in 8% DMSO) originating from a chemical library (Supplementary Tables S2, S3), 20 µM of PtGSTU19 or 20, and 5X SYPRO orange. […] The denaturation temperature, which corresponds to the temperature at which 50% of the total fluorescence is measured, was determined by the nonlinear regression Boltzmann sigmoidal model in GraphPad Prism 8 software for data obtained in the presence of potential ligands. This temperature was compared with a reference assay in which organic compounds were replaced by an equivalent DMSO concentration.

[10] = target: T4, PtGSTU20; assay: Thermal shift assay (SYPRO orange); format: binding
Protocol: as §1

[11] = target: T5, PtGSTU19Y160C; conditions: PtGSTU19 Y160C, peroxidase activity, mean ± S.D., n = 3
Protocol: as §2, §3

[12] = target: T3, PtGSTU19; assay: Peroxidase activity, NADPH coupled spectrophotometric assay; format: biochemical; conditions: for Peroxidase activity (active on the peroxide): enzyme concentration increased up to 10 µM
Protocol: as §2, §4

[13] = target: T1, PtGSTU20C160Y; conditions: PtGSTU19 C160Y in Table S4, peroxidase activity, mean ± S.D., n = 3
Protocol: as §2, §3

[14] = target: T4, PtGSTU20; assay: Peroxidase activity, NADPH coupled spectrophotometric assay; format: biochemical; conditions: for Peroxidase activity (active on the peroxide): enzyme concentration increased up to 10 µM
Protocol: as §2, §4

[15] = target: T2, PtGSTU19Y160F; conditions: PtGSTU19 Y160F, peroxidase activity, mean ± S.D., n = 3
Protocol: as §2, §3

[16] = target: T6, PtGSTU19Y160A; conditions: PtGSTU19 Y160A, peroxidase activity, mean ± S.D., n = 3
Protocol: as §2, §3

[17] = PtGSTU19, 25°C, fixed 1 mM GSH (0.7 mM with HNE), mean ± S.D., n = 3
[18] = 25°C, fixed 1 mM GSH (0.7 mM with HNE), mean ± S.D., n = 3
[19] = read-out: ΔTd (denaturation temperature difference), PtGSTU19 20 µM, compound 100 µM, vs DMSO reference, flavonoid set (Table S3, Figure 4)
[20] = read-out: ΔTd (denaturation temperature difference), PtGSTU19 apo form 20 µM, compound 100 µM, vs DMSO reference, first chemical library screen (Table S2, Figure S9)
[21] = read-out: ΔTd (denaturation temperature difference), PtGSTU20 20 µM, compound 100 µM, vs DMSO reference, flavonoid set (Table S3, Figure 4)
[22] = read-out: ΔTd (denaturation temperature difference), PtGSTU20 apo form 20 µM, compound 100 µM, vs DMSO reference, first chemical library screen (Table S2, Figure S9)
[23] = read-out: ΔTd (denaturation temperature difference)
[24] = peroxidase activity, 1 mM GSH, pH 8.0, mean ± S.D., n = 3
[25] = read-out: apparent K m, peroxidase activity, 1 mM GSH, pH 8.0, mean ± S.D., n = 3

SMILES: S=C=NCc1ccccc1 [BITC, benzyl-isothiocyanate]
k cat [1]: 4.9 ± 0.1 s⁻¹
Km [1]: 71.4 ± 9.6 µM
k cat [2]: 8.3 ± 0.2 s⁻¹
Km [2]: 36.3 ± 3.3 µM
Catalytic efficiency [3]: 132200 M⁻¹ s⁻¹
k cat [3, 17]: 7.0 ± 0.1 s⁻¹
k cat [4, 18]: 10.4 ± 0.3 s⁻¹
k cat [5]: 6.7 ± 0.1 s⁻¹
Km [5]: 54.1 ± 3.3 µM
k cat [6]: 6.5 ± 0.2 s⁻¹
Km [6]: 30.6 ± 4.5 µM

SMILES: O=[N+]([O-])c1ccc(Cl)c([N+](=O)[O-])c1 [CDNB]
k cat [1]: 0.59 ± 0.03 s⁻¹
Km [1]: 2250 ± 229 µM
k cat [2]: 17.3 ± 1.0 s⁻¹
Km [2]: 3670 ± 390 µM
k cat [3, 17]: 28.8 ± 2.2 s⁻¹
k cat/K m [3, 17]: 8.9 ± 0.8 10^3 M^-1s^-1
Catalytic efficiency of PtGSTU19 relative to PtGSTU20 ([3]; PtGSTU19 higher than PtGSTU20): 30 times
Km ([3]; read-out: apparent K m, PtGSTU19, 25°C, fixed 1 mM GSH (0.7 mM with HNE), mean ± S.D., n = 3): 3390 ± 502 µM
Catalytic efficiency [4]: 300 M⁻¹ s⁻¹
k cat [4, 18]: 0.59 ± 0.03 s⁻¹
k cat/K m [4, 18]: 0.33 ± 0.01 10^3 M^-1s^-1
Km ([4]; read-out: apparent K m, 25°C, fixed 1 mM GSH (0.7 mM with HNE), mean ± S.D., n = 3): 1780 ± 193 µM
k cat [5]: 14.0 ± 1.2 s⁻¹
Km [5]: 4160 ± 620 µM
k cat [6]: 7.2 ± 0.9 s⁻¹
Km [6]: 7040 ± 1380 µM

SMILES: O=c1cc(-c2ccccc2)oc2cc(O)cc(O)c12 [Chrysin]
ΔTm at 100 µM [9, 23]: -0.05 ± 0.07 °C
ΔTm at 100 µM [10, 23]: 2.07 °C

SMILES: CC(C)(OO)c1ccccc1 [CuOOH, cumene hydroperoxide]
k cat [11]: 0.45 ± 0.03 s⁻¹
Km ([11]; read-out: apparent KM): 1260 ± 140 µM
Peroxidase activity (active on the peroxide) [12]: weakly active
Catalytic efficiency ([12]; peroxidase activity): 800 M⁻¹ s⁻¹
k cat [12, 24]: 0.17 ± 0.01 s⁻¹
k cat/K m [12, 24]: 0.85 ± 0.04 10^3 M^-1s^-1
Km [12, 25]: 197 ± 31.1 µM
k cat [13]: 0.14 ± 0.01 s⁻¹
Km ([13]; read-out: apparent KM): 491 ± 97.5 µM
Peroxidase activity (active on the peroxide) [14]: weakly active
Catalytic efficiency ([14]; peroxidase activity): 2400 M⁻¹ s⁻¹
k cat [14, 24]: 0.24 ± 0.01 s⁻¹
k cat/K m [14, 24]: 2.4 ± 0.1 10^3 M^-1s^-1
Km [14, 25]: 98.6 ± 15.4 µM
k cat [15]: 0.49 ± 0.01 s⁻¹
Km ([15]; read-out: apparent KM): 347 ± 34.6 µM
k cat [16]: 0.33 ± 0.02 s⁻¹
Km ([16]; read-out: apparent KM): 701 ± 82.7 µM

SMILES: N[C@@H](CCC(=O)N[C@@H](CS)C(=O)NCC(=O)O)C(=O)O [GSH, glutathione]
apparent affinity for glutathione, reduced by a factor [2]: 4
variation of apparent affinity for glutathione [2]: no variation
ΔTd (denaturation temperature difference) ([9]; PtGSTU19 apo form 20 µM, compound 100 µM, vs DMSO reference, first chemical library screen (Table S2, Figure S9)): little or no change
ΔTd (denaturation temperature difference) ([10]; PtGSTU20 apo form 20 µM, compound 100 µM, vs DMSO reference, first chemical library screen (Table S2, Figure S9)): little or no change

SMILES: CCCCCC(O)C=CC=O (centres unmarked) [HNE, 4-hydroxy-2-nonenal]
Catalytic efficiency [3]: 2000 M⁻¹ s⁻¹

Now from value to compound:

Ki [7]: 35.2 ± 2.8 µM
Ki [8]: 7.1 ± 0.6 µM
ΔTm at 100 µM [9, 19]: 0.73 ± 0.2 °C
ΔTm at 100 µM [9, 20]: > 4 °C
ΔTm at 100 µM [10, 21]: 3.4 °C
ΔTm at 100 µM [10, 22]: > 4 °C
SMILES: O=c1cc(-c2ccccc2)oc2cc(O)c(O)c(O)c12 [Baicalein]

Ki ([7]; read-out: K i): 157 ± 28.7 µM
Ki ([8]; read-out: K i): 43.8 ± 0.6 µM
ΔTm at 100 µM ([9]; PtGSTU19 20 µM, compound 100 µM, vs DMSO reference, flavonoid set (Table S3, Figure 4), read-out: ΔTd (denaturation temperature difference)): 1.59 ± 0.29 °C
ΔTd (denaturation temperature difference) ([10]; PtGSTU20 20 µM, compound 100 µM, vs DMSO reference, flavonoid set (Table S3, Figure 4), 100 µM): 5.89 ± 0.64 °C
ΔTm at 100 µM ([10]; PtGSTU20 20 µM, compound 100 µM, vs DMSO reference, flavonoid set (Table S3, Figure 4), read-out: ΔTd (denaturation temperature difference)): 7.42 °C
SMILES: O=c1c(O)c(-c2ccccc2)oc2cc(O)cc(O)c12 [Galangin]

Peroxidase activity (active on the peroxide) [12]: not
Peroxidase activity (active on the peroxide) [14]: not
SMILES: OO [H2O2, hydrogen peroxide]

Ki [7]: 72.9 ± 5.3 µM
Ki [8]: 16 ± 0.9 µM
ΔTm at 100 µM [9, 19]: 0.37 ± 0.16 °C
ΔTm at 100 µM [9, 20]: > 4 °C
ΔTm at 100 µM [10, 21]: 4.36 °C
ΔTm at 100 µM [10, 22]: > 4 °C
SMILES: O=c1c(O)c(-c2ccc(O)cc2O)oc2cc(O)cc(O)c12 [Morin]
